Data reported in ChEMBL document CHEMBL1141788, “Dendridine A, a bis-indole alkaloid from a marine sponge Dictyodendrilla Species” (2005).
Converted amounts (≈) assume the structure as drawn.

How the values were obtained:
Type in all cases: functional
Micrococcus luteus = assay: Antibacterial activity against Micrococcus luteus
Bacillus subtilis = assay: Antibacterial activity against Bacillus subtilis
Cryptococcus neoformans = assay: Antifungal activity against Cryptococcus neoformans

`NCCc1c[nH]c2c(O)cc(Br)c(-c3c(Br)cc(O)c4[nH]cc(CCN)c34)c12` [DENDRIDINE A] was tested, and the MIC (Micrococcus luteus) was 4.2 µg/mL (≈ 8.26 µM), the MIC (Bacillus subtilis) was 8.3 µg/mL (≈ 16.3 µM) and the MIC (Cryptococcus neoformans) was 8.3 µg/mL (≈ 16.3 µM).
